From patent US9944647B2 (Incyte Corporation, priority 2015, dated 2018)

target: LSD-1 enzyme (Homo sapiens (Human), UniProt O60341); assay: LANCE LSD1/KDM1A demethylase assay (LSD1 histone demethylase biochemical assay); details: 1 nM LSD-1 enzyme, 1 hour preincubation at 25° C., Biotin-labeled Histone H3 peptide substrate

Row | SMILES | IC50
1 | CN1CCC[C@@H](COc2nc(-c3ccc(C#N)cc3)c(-c3ccc(CN(C)C(=O)N(C)C)cc3)c3nccn23)C1 [Example 86, N-[4-(7-(4-cyanophenyl)-5-{[(3R)-1-methylpiperidin-3-y1]methoxy}imidazo[1,2-c]pyrimidin-8-yl)benzyl]-N,N′,N′-trimethylurea] | ≤ 50 nM
2 | COC(=O)N(C)Cc1ccc(-c2c(-c3ccc(C#N)cc3)nc(OC[C@@H]3CCCN(C)C3)n3ccnc23)cc1 [Example 87, methyl [4-(7-(4-cyanophenyl)-5-{[(3R)-1-methylpiperidin-3-yl]methoxy}imidazo[1,2-c]pyrimidin-8-yl)benzyl]methylcarbamate] | ≤ 50 nM
3 | COc1ncc(-c2c(-c3ccc(C#N)cc3)nc(OC[C@@H]3CCCN(C)C3)n3ccnc23)cc1Cl [Example 88, 4-(8-(5-chloro-6-methoxypyridin-3-yl)-5-{[(3R)-1-methylpiperidin-3-yl]methoxy}imidazo[1,2-c]pyrimidin-7-yl)benzonitrile] | ≤ 50 nM
4 | Cc1cc(-c2c(-c3ccc(C#N)cc3)nc(N3CCC(N(C)C)CC3)n3ccnc23)cc(F)c1CO [Example 89, 4-{5-[4-(dimethylamino)piperidin-1-yl]-8-[3-fluoro-4-(hydroxymethyl)-5-methylphenyl]imidazo[1,2-c]pyrimidin-7-yl}benzonitrile] | ≤ 50 nM
5 | CN(C)C1CCN(c2nc(-c3ccc(C#N)cc3)c(-c3cc(F)c(CO)c(F)c3)c3nccn23)CC1 [Example 90, 4-{8-[3,5-difluoro-4-(hydroxymethyl)phenyl]-5-[4-(dimethylamino)piperidin-1-yl]imidazo[1,2-c]pyrimidin-7-yl}benzonitrile] | ≤ 50 nM
6 | Cc1cc(-c2c(-c3ccc(C#N)cc3)nc(N3CCC(N(C)C)CC3)n3ccnc23)ccc1CO [Example 91, 4-{5-[4-(dimethylamino)piperidin-1-yl]-8-[4-(hydroxymethyl)-3-methylphenyl]imidazo[1,2-c]pyrimidin-7-yl}benzonitrile] | ≤ 50 nM
7 | Cc1ncc(-c2c(-c3ccc(C#N)cc3)nc(OC[C@@H]3CCCN(C)C3)n3ccnc23)cc1Cl [Example 92, 4-(8-(5-chloro-6-methylpyridin-3-yl)-5-{[(3R)-1-methylpiperidin-3-yl]methoxy}imidazo[1,2-c]pyrimidin-7-yl)benzonitrile] | ≤ 50 nM
8 | Cc1ccc(-c2c(-c3ccc(C#N)cc3)nc(OC[C@@H]3CCCN(C)C3)n3ccnc23)cc1C(C)O (stereo partly drawn) [Example 93, 4-(8-[3-(1-hydroxyethyl)-4-methylphenyl]-5-{[(3R)-1-methylpiperidin-3-yl]methoxy}imidazo[1,2-c]pyrimidin-7-yl)benzonitrile] | ≤ 50 nM
9 | COCc1ccc(-c2c(-c3ccc(C#N)cc3)nc(OC[C@@H]3CCCN(C)C3)n3ccnc23)cc1 [Example 94, 4-(8-[4-(methoxymethyl)phenyl]-5-{[(3R)-1-methylpiperidin-3-yl]methoxy}imidazo[1,2-c]pyrimidin-7-yl)benzonitrile] | ≤ 50 nM
10 | CN1CCC[C@@H](COc2nc(-c3ccc(C#N)cc3)c(-c3ccc(CN4CCOCC4)cc3F)c3nccn23)C1 [Example 95, 4-(8-[2-fluoro-4-(morpholin-4-ylmethyl)phenyl]-5-{[(3R)-1-methylpiperidin-3-yl]methoxy}imidazo[1,2-c]pyrimidin-7-yl)benzonitrile] | ≤ 50 nM
11 | Cc1ccc(-c2c(-c3ccc(C#N)cc3)nc(OC[C@@H]3CCCN(C)C3)n3ccnc23)cc1C#N [Example 96, 5-(7-(4-cyanophenyl)-5-{[(3R)-1-methylpiperidin-3-yl]methoxy}imidazo[1,2-c]pyrimidin-8-yl)-2-methylbenzonitrile] | ≤ 50 nM
12 | CN(C)C(=O)N(C)Cc1ccc(-c2c(-c3ccc(C#N)cc3)nc(N3CCC(N(C)C)CC3)n3ccnc23)cc1F [Example 97, N-(4-{7-(4-cyanophenyl)-5-[4-(dimethylamino)piperidin-1-yl]imidazo[1,2-c]pyrimidin-8-yl}-2-fluorobenzyl)-N,N′,N′-trimethylurea] | ≤ 50 nM
13 | CN(C)C1CCN(c2nc(-c3ccc(C#N)cc3)c(-c3ccc(CN4CCOCC4)c(F)c3)c3nccn23)CC1 [Example 98, 4-{5-[4-(dimethylamino)piperidin-1-yl]-8-[3-fluoro-4-(morpholin-4-ylmethyl)phenyl]imidazo[1,2-c]pyrimidin-7-yl}benzonitrile] | ≤ 50 nM
14 | CCN1CCC[C@@H](COc2nc(-c3ccc(C#N)cc3)c(-c3ccc(C)c(CO)c3)c3nccn23)C1 [Example 99, 4-{5-{[(3R)-1-ethylpiperidin-3-yl]methoxy}-8-[3-(hydroxymethyl)-4-methylphenyl]imidazo[1,2-c]pyrimidin-7-yl}benzonitrile] | ≤ 50 nM
15 | Cc1ccc(-c2c(-c3ccc(C#N)cc3)nc(N3CC[C@@H](N(C)C)C3)n3ccnc23)cc1CO [Example 100, 4-{5-[(3R)-3-(dimethylamino)pyrrolidin-1-yl]-8-[3-(hydroxymethyl)-4-methylphenyl]imidazo[1,2-c]pyrimidin-7-yl}benzonitrile] | ≤ 50 nM
16 | CN1CCC[C@@H](COc2nc(-c3ccc(C#N)cc3)c(-c3ccc(CO)c(Cl)c3)c3nccn23)C1 [Example 101, 4-(8-[3-chloro-4-(hydroxymethyl)phenyl]-5-{[(3R)-1-methylpiperidin-3-yl]methoxy}imidazo[1,2-c]pyrimidin-7-yl)benzonitrile] | ≤ 50 nM

Row | SMILES | IC50
17 | Cc1ccc(-c2c(-c3ccc(C#N)cc3)nc(N3CCC(N(C)C)CC3)n3ccnc23)cc1CO [Example 102, 4-{5-[4-(dimethylamino)piperidin-1-yl]-8-[3-(hydroxymethyl)-4-methylphenyl]imidazo[1,2-c]pyrimidin-7-yl}benzonitrile] | ≤ 50 nM
18 | Cc1ncc(-c2c(-c3ccc(C#N)cc3)nc(N3CCC(N(C)C)CC3)n3ccnc23)cc1Cl [Example 103, 4-{8-(5-chloro-6-methylpyridin-3-yl)-5-[4-(dimethylamino)piperidin-1-yl]imidazo[1,2-c]pyrimidin-7-yl}benzonitrile] | ≤ 50 nM
19 | COc1ncc(-c2c(-c3ccc(C#N)cc3)nc(N3CCC(N(C)C)CC3)n3ccnc23)cc1Cl [Example 104, 4-{8-(5-chloro-6-methoxypyridin-3-yl)-5-[4-(dimethylamino)piperidin-1-yl]imidazo[1,2-c]pyrimidin-7-yl}benzonitrile] | ≤ 50 nM
20 | COc1ncc(-c2c(-c3ccc(C#N)cc3)nc(N3CCC(N(C)C)CC3)n3ccnc23)cc1C#N [Example 105, 5-{7-(4-cyanophenyl)-5-[4-(dimethylamino)piperidin-1-yl]imidazo[1,2-c]pyrimidin-8-yl}-2-methoxynicotinonitrile] | ≤ 50 nM
21 | CCc1ccc(-c2c(-c3ccc(C#N)cc3)nc(OC[C@@H]3CCCN(C)C3)n3ccnc23)cn1 [Example 107, 4-(8-(6-ethylpyridin-3-yl)-5-{[(3R)-1-methylpiperidin-3-yl]methoxy}imidazo[1,2-c]pyrimidin-7-yl)benzonitrile] | 50 to 500 nM
22 | CC(C)c1ccc(-c2c(-c3ccc(C#N)cc3)nc(OC[C@@H]3CCCN(C)C3)n3ccnc23)cn1 [Example 108, 4-(8-(6-isopropylpyridin-3-yl)-5-{[(3R)-1-methylpiperidin-3-yl]methoxy}imidazo[1,2-c]pyrimidin-7-yl)benzonitrile] | 50 to 500 nM
23 | CCN1CCC[C@@H](COc2nc(-c3ccc(C#N)cc3)c(-c3cc(C)c(CO)c(F)c3)c3nccn23)C1 [Example 109, 4-{5-{[(3R)-1-ethylpiperidin-3-yl]methoxy}-8-[3-fluoro-4-(hydroxymethyl)-5-methylphenyl]imidazo[1,2-c]pyrimidin-7-yl}benzonitrile] | ≤ 50 nM
24 | Cc1cc(-c2c(-c3ccc(C#N)cc3)nc(N3CC[C@@H](N(C)C)C3)n3ccnc23)cc(F)c1CO [Example 110, 4-{5-[(3R)-3-(dimethylamino)pyrrolidin-1-yl]-8-[3-fluoro-4-(hydroxymethyl)-5-methylphenyl]imidazo[1,2-c]pyrimidin-7-yl}benzonitrile] | ≤ 50 nM
25 | Cc1ccc(-c2c(-c3ccc(C#N)cc3)nc(N3CCC(N(C)C)CC3)n3ccnc23)c(CO)c1 [Example 111, 4-{5-[4-(dimethylamino)piperidin-1-yl]-8-[2-(hydroxymethyl)-4-methylphenyl]imidazo[1,2-c]pyrimidin-7-yl}benzonitrile] | ≤ 50 nM
26 | Cc1ccc(-c2c(-c3ccc(C#N)cc3)nc(N3CCC(N(C)C)CC3)n3ccnc23)cn1 [Example 112, 4-[5-[4-(dimethylamino)piperidin-1-yl]-8-(6-methylpyridin-3-yl)imidazo[1,2-c]pyrimidin-7-yl]benzonitrile] | 50 to 500 nM
27 | Cc1ncc(-c2c(-c3ccc(C#N)cc3)nc(N3CCC(N(C)C)CC3)n3ccnc23)cc1F [Example 113, 4-[5-[4-(dimethylamino)piperidin-1-yl]-8-(5-fluoro-6-methylpyridin-3-yl)imidazo[1,2-c]pyrimidin-7-yl]benzonitrile] | ≤ 50 nM
28 | CN(C)C1CCN(c2nc(-c3ccc(C#N)cc3)c(-c3ccc(N(C)S(C)(=O)=O)nc3)c3nccn23)CC1 [Example 115, N-(5-{7-(4-cyanophenyl)-5-[4-(dimethylamino)piperidin-1-yl]imidazo[1,2-c]pyrimidin-8-yl}pyridin-2-yl)-N-methylmethanesulfonamide] | ≤ 50 nM
29 | CCOc1ccc(-c2c(-c3ccc(C#N)cc3)nc(N3CCC(N(C)C)CC3)n3ccnc23)cn1 [Example 117, 4-[5-[4-(dimethylamino)piperidin-1-yl]-8-(6-ethoxypyridin-3-yl)imidazo[1,2-c]pyrimidin-7-yl]benzonitrile] | ≤ 50 nM
30 | CC(C)c1ccc(-c2c(-c3ccc(C#N)cc3)nc(N3CCC(N(C)C)CC3)n3ccnc23)cn1 [Example 118, 4-[5-[4-(dimethylamino)piperidin-1-yl]-8-(6-isopropylpyridin-3-yl)imidazo[1,2-c]pyrimidin-7-yl]benzonitrile] | 50 to 500 nM
31 | CCN1CCC[C@@H](COc2nc(-c3ccc(C#N)cc3)c(-c3ccc(C)cc3CO)c3nccn23)C1 [Example 119, 4-{5-{[(3R)-1-ethylpiperidin-3-yl]methoxy}-8-[2-(hydroxymethyl)-4-methylphenyl]imidazo[1,2-c]pyrimidin-7-yl}benzonitrile] | 50 to 500 nM
